Key:
BRD4-BD2 [1] = target: T1, BRD4-BD2 (Homo sapiens, UniProt O60885); assay: Protein Thermal Shift (PTS) assay on BRD4-BD2; type: binding; set-up: polyhistidine (N, cleaved yes); made in house; host or cells: E. coli (T7 express); settings: 100 μM ligand, 20 μM BD protein; thermal destabilization
Experimental: The genes encoding human BRD2-BD1, BRD2-BD2, and BRD4-BD2 were codon-optimized for expression in E. coli. […] The sequence-confirmed plasmids were used to transform T7 express E coli. Large-scale cell cultures were grown in LB media containing […] carbenicillin and incubated with shaking at 37° C. until the OD600 nm reached 0.6. Then cultures were cooled to 16° C., and 1 mM isopropyl β-D-1-thiogalactopyranoside was added to induce the protein expression. After 20 hours of incubation, cells were harvested. The resulting cell pellet was resuspended in a lysis buffer containing 50 mM Tris pH 7.5, 200 mM NaCl, 0.5 mM imidazole, and 0.3 mM tris(2-carboxyethyl) phosphine (TECP). After the addition of DNase I and lysozyme, the cell suspension was incubated on ice for 30 minutes and lysed by sonication. The lysate was clarified by centrifugation at 12,000 rpm for 45 minutes. The resulting supernatant was applied to a 5 mL metal affinity cobalt column pre-equilibrated with lysis buffer. Then, 25 column volumes of lysis buffer were passed through the column to eliminate unbound E coli proteins. Recombinant protein was eluted isocratically with the elution buffer containing 50 mM Tris pH 7.5, 200 mM NaCl, 150 mM imidazole, and 0.3 mM TECP. The rhinovirus 3C protease was added to the eluted recombinant protein to cleave the N-terminal Histidine tag and the sample dialyzed against a buffer containing 50 mM Tris pH 7.5, 100 mM NaCl and 0.3 mM TECP. After 12 hours, the protein solution was passed through a 5 ml cobalt column, which was pre-equilibrated with dialysis buffer, and the recombinant protein lacking the His-tag was collected from the flowthrough.
Each reaction used 20 μM concentration of recombinant BD protein in a 50 mM Tris pH 7.5 buffer containing 100 mM NaCl, 0.3 mM tris(2-carboxyethyl) phosphine HCl, and 1% dimethyl sulfoxide. Protein Thermal Shift Dye (ThermoFisher) was also added at 1× concentration. Under these conditions, 3 protein melting curves with each respective BD and 100 μM final concentration of ligand were performed from 25 to 95° C. with a ramp rate of 0.5° C./minute. Evaluation of the derivative of the fluorescence signal employed the Applied Bioscience Protein Thermal Shift Software version 1.3 to determine the average melting temperature (Tm) for each sample and the standard deviation(s) of those Tm values.

BRD4-BD1 = target: T2, BRD4-BD1 (Homo sapiens, UniProt O60885); settings: relative to SF2523; cited from earlier work
T2 construct: tested against BRD4-BD1 and BRD4-BD2 using a peptide-displacement assay

BRD4-BD2 [2] = target: T1, BRD4-BD2; set-up: tested against BRD4-BD1 and BRD4-BD2 using a peptide-displacement assay; settings: relative to SF2523; cited from earlier work

Structure (SMILES) | BRD4-BD2 Tm decrease (BRD4-BD2 [1]) [°C] | better binding affinity than SF2523 for BRD4-BD1 (BRD4-BD1) [fold] | better binding affinity than SF2523 for BRD4-BD2 (BRD4-BD2 [2]) [fold]
O=c1c(N2CCOCC2)nc(Br)c2n1CCc1ccccc1-2 [MDP3, 1-bromo-3-morpholino-6,7-dihydro-4H-pyrazino [2,1-a]isoquinolin-4-one] | 1.3 | – | –
O=c1cc(N2CCOCC2)oc2c(Br)cccc12 [MDP4, 8-bromo-2-morpholino-4H-chromen-4-one] | 0.6 | – | –
O=C(NCc1cccnc1)c1cc(-c2csc3c(=O)cc(N4CCOCC4)oc23)cc2c1OCCO2 [SRX3212] | – | 65 | 48
